# How the values were obtained:
# [1] = molecular target: 5-hydroxytryptamine receptor 1B (Homo sapiens) (UniProt P28222); assay: 5-HT1B Eurofins-Cerep binding assay; set-up: ligand concentration 1 nM; settings: filed as antagonist, Compound concentration 10.0 uM
# [2] = molecular target: Kappa-type opioid receptor (Homo sapiens) (UniProt P41145); assay: kappa (KOP) Eurofins-Cerep binding assay; settings: filed as agonist, Compound concentration 10.0 uM
# [3] = molecular target: 5-hydroxytryptamine receptor 1A (Homo sapiens) (UniProt P08908); assay: 5-HT1A Eurofins-Cerep binding assay; set-up: ligand concentration 0.5 nM; settings: filed as agonist, Compound concentration 10.0 uM
# [4] = molecular target: 5-hydroxytryptamine receptor 2B (Homo sapiens) (UniProt P41595); assay: 5-HT2B Eurofins-Cerep binding assay; settings: filed as agonist, Compound concentration 10.0 uM
# [5] = molecular target: 5-hydroxytryptamine receptor 3A (Homo sapiens) (UniProt P46098); assay: 5-HT3 Eurofins-Cerep binding assay; set-up: ligand concentration 0.5 nM; settings: filed as antagonist, Compound concentration 10.0 uM
# [6] = molecular target: Adenosine receptor A2a (Homo sapiens) (UniProt P29274); assay: A2A Eurofins-Cerep binding assay; set-up: ligand concentration 6 nM; settings: filed as agonist, Compound concentration 10.0 uM
# [7] = molecular target: Beta-1 adrenergic receptor (Homo sapiens) (UniProt P08588); assay: beta 1 Eurofins-Cerep binding assay; set-up: ligand concentration 0.3 nM; settings: filed as agonist, Compound concentration 10.0 uM
# [8] = molecular target: Cholecystokinin receptor type A (Homo sapiens) (UniProt P32238); assay: CCK1 (CCKA) Eurofins-Cerep binding assay; set-up: ligand concentration 0.08 nM; settings: filed as agonist, Compound concentration 10.0 uM
# [9] = molecular target: D(1A) dopamine receptor (Homo sapiens) (UniProt P21728); assay: D1 Eurofins-Cerep binding assay; set-up: ligand concentration 0.3 nM; settings: filed as antagonist, Compound concentration 10.0 uM
# [10] = molecular target: Sodium-dependent dopamine transporter (Homo sapiens) (UniProt Q01959); assay: dopamine transporter Eurofins-Cerep binding assay; settings: filed as antagonist, Compound concentration 10.0 uM
# [11] = molecular target: Delta-type opioid receptor (Homo sapiens) (UniProt P41143); assay: delta (DOP) Eurofins-Cerep binding assay; set-up: ligand concentration 0.5 nM; settings: filed as agonist, Compound concentration 10.0 uM
# [12] = molecular target: Endothelin-1 receptor (Homo sapiens) (UniProt P25101); assay: ETA Eurofins-Cerep binding assay; set-up: ligand concentration 0.03 nM; settings: filed as agonist, Compound concentration 10.0 uM
# [13] = molecular target: Histamine H1 receptor (Homo sapiens) (UniProt P35367); assay: H1 Eurofins-Cerep binding assay; set-up: ligand concentration 1 nM; settings: filed as antagonist, Compound concentration 10.0 uM
# [14] = molecular target: Histamine H2 receptor (Homo sapiens) (UniProt P25021); assay: H2 Eurofins-Cerep binding assay; set-up: ligand concentration 0.075 nM; settings: filed as antagonist, Compound concentration 10.0 uM
# Rattus norvegicus [15] = species on record: Rattus norvegicus; assay: KV channel Eurofins-Cerep binding assay; set-up: ligand concentration 0.01 nM; settings: filed as antagonist, Compound concentration 10.0 uM
# [16] = molecular target: Muscarinic acetylcholine receptor M1 (Homo sapiens) (UniProt P11229); assay: M1 Eurofins-Cerep binding assay; set-up: ligand concentration 2 nM; settings: filed as antagonist, Compound concentration 10.0 uM
# [17] = molecular target: Muscarinic acetylcholine receptor M2 (Homo sapiens) (UniProt P08172); assay: M2 Eurofins-Cerep binding assay; set-up: ligand concentration 2 nM; settings: filed as antagonist, Compound concentration 10.0 uM
# [18] = molecular target: Muscarinic acetylcholine receptor M3 (Homo sapiens) (UniProt P20309); assay: M3 Eurofins-Cerep binding assay; set-up: ligand concentration 0.2 nM; settings: filed as antagonist, Compound concentration 10.0 uM
# [19] = molecular target: Mu-type opioid receptor (Homo sapiens) (UniProt P35372); assay: mu (MOP) Eurofins-Cerep binding assay; set-up: ligand concentration 0.5 nM; settings: filed as agonist, Compound concentration 10.0 uM
# [20] = molecular target: Sodium-dependent noradrenaline transporter (Homo sapiens) (UniProt P23975); assay: norepinephrine transporter Eurofins-Cerep binding assay; set-up: ligand concentration 1 nM; settings: filed as antagonist, Compound concentration 10.0 uM
# [21] = molecular target: Sodium-dependent serotonin transporter (Homo sapiens) (UniProt P31645); assay: 5-HT transporter Eurofins-Cerep binding assay; set-up: ligand concentration 2 nM; settings: filed as antagonist, Compound concentration 10.0 uM
# [22] = molecular target: Vasopressin V1a receptor (Homo sapiens) (UniProt P37288); assay: V1a Eurofins-Cerep binding assay; set-up: ligand concentration 0.3 nM; settings: filed as agonist, Compound concentration 10.0 uM
# [23] = molecular target: 5-hydroxytryptamine receptor 7 (Homo sapiens) (UniProt P34969); assay: 5-HT7 Eurofins-Cerep binding assay; set-up: ligand concentration 4 nM; settings: filed as agonist, Compound concentration 10.0 uM
# [24] = molecular target: Adenosine receptor A1 (Homo sapiens) (UniProt P30542); assay: A1 Eurofins-Cerep binding assay; set-up: ligand concentration 1 nM; settings: filed as antagonist, Compound concentration 10.0 uM
# [25] = molecular target: Adenosine receptor A3 (Homo sapiens) (UniProt P0DMS8); assay: A3 Eurofins-Cerep binding assay; set-up: ligand concentration 0.15 nM; settings: filed as agonist, Compound concentration 10.0 uM
# [26] = molecular target: Type-1 angiotensin II receptor (Homo sapiens) (UniProt P30556); assay: AT1 Eurofins-Cerep binding assay; settings: filed as antagonist, Compound concentration 10.0 uM
# [27] = molecular target: Melanocortin receptor 4 (Homo sapiens) (UniProt P32245); assay: MC4 Eurofins-Cerep binding assay; set-up: ligand concentration 0.05 nM; settings: filed as agonist, Compound concentration 10.0 uM
# [28] = molecular target: Melatonin receptor type 1A (Homo sapiens) (UniProt P48039); assay: MT1 (ML1A) Eurofins-Cerep binding assay; set-up: ligand concentration 0.01 nM; settings: filed as agonist, Compound concentration 10.0 uM
# Rattus norvegicus [29] = species on record: Rattus norvegicus; assay: BZD (central) Eurofins-Cerep binding assay; settings: filed as agonist, Compound concentration 10.0 uM
# [30] = molecular target: Neuropeptide Y receptor type 1 (Homo sapiens) (UniProt P25929); assay: Y1 Eurofins-Cerep binding assay; set-up: ligand concentration 0.025 nM; settings: filed as agonist, Compound concentration 10.0 uM
# [31] = molecular target: Neuropeptide Y receptor type 2 (Homo sapiens) (UniProt P49146); assay: Y2 Eurofins-Cerep binding assay; set-up: ligand concentration 0.015 nM; settings: filed as agonist, Compound concentration 10.0 uM
# Rattus norvegicus [32] = species on record: Rattus norvegicus; assay: Cl-channel (GABA-gated) Eurofins-Cerep binding assay; set-up: ligand concentration 3 nM; settings: filed as antagonist, Compound concentration 10.0 uM
# Sequence of Muscarinic acetylcholine receptor M3 (Homo sapiens) (P20309 whole entry, looked up): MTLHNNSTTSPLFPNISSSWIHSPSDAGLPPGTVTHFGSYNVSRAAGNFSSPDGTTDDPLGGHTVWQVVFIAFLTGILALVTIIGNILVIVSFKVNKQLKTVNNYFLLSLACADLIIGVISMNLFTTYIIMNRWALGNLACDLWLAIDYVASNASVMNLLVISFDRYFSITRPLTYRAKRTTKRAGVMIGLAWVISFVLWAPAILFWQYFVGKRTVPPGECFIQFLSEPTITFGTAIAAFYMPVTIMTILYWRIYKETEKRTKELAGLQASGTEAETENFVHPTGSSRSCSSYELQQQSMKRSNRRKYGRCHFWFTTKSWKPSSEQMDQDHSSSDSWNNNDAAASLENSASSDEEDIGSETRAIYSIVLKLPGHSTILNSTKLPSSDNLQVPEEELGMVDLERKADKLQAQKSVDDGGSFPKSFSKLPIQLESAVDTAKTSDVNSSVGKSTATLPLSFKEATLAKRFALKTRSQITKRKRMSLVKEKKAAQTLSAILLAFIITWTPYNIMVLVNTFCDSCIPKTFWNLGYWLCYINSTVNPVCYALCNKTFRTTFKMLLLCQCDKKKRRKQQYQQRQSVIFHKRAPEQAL
# Sequence of Muscarinic acetylcholine receptor M1 (Homo sapiens) (P11229 whole entry): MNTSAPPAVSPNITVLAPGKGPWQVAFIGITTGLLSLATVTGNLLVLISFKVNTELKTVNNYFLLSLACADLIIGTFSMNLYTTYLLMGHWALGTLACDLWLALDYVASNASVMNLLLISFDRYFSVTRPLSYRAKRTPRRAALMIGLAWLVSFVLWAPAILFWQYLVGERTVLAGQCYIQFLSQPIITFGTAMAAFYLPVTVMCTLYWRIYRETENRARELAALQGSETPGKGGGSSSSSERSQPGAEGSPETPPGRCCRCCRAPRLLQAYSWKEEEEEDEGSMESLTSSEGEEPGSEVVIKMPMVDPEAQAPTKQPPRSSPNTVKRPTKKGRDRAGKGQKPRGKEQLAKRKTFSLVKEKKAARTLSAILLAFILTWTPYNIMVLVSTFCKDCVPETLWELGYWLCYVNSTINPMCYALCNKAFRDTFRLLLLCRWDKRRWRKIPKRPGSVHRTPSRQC
# Sequence of Muscarinic acetylcholine receptor M2 (Homo sapiens) (P08172 whole entry): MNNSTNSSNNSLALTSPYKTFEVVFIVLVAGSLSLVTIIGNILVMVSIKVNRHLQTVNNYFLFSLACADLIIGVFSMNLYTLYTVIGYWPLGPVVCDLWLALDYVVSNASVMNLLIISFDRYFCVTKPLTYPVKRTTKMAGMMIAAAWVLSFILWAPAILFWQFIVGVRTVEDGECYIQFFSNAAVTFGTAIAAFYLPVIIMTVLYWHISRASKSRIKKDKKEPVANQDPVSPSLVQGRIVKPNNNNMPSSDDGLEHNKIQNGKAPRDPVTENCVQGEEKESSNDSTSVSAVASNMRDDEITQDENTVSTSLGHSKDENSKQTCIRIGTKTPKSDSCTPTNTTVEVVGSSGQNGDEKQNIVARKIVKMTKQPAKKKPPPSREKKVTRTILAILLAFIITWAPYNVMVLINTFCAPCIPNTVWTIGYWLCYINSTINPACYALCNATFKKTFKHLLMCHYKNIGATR
# Sequence of Beta-1 adrenergic receptor (Homo sapiens) (P08588 whole entry, looked up): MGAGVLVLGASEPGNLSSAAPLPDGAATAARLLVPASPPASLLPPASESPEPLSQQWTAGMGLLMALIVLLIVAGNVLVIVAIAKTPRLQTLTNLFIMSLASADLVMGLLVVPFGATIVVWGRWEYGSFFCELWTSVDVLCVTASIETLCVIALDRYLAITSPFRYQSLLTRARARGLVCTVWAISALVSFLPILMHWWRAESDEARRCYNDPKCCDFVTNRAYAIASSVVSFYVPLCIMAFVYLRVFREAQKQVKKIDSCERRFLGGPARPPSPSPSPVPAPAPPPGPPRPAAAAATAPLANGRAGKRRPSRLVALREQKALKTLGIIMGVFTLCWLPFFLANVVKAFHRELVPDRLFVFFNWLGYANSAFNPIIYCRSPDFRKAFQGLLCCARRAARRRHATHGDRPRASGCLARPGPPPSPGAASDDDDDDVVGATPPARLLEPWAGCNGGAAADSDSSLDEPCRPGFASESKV
# Sequence of Adenosine receptor A1 (Homo sapiens) (P30542 whole entry): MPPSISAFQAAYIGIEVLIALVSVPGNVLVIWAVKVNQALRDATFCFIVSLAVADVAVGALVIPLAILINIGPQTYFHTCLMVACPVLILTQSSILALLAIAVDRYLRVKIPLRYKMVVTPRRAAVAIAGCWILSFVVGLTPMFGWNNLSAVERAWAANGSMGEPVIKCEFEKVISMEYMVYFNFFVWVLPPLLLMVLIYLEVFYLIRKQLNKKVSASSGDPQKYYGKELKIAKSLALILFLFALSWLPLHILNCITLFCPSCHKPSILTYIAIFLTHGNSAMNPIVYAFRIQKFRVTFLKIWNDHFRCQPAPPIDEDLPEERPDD
# Sequence of Sodium-dependent noradrenaline transporter (Homo sapiens) (P23975 whole entry): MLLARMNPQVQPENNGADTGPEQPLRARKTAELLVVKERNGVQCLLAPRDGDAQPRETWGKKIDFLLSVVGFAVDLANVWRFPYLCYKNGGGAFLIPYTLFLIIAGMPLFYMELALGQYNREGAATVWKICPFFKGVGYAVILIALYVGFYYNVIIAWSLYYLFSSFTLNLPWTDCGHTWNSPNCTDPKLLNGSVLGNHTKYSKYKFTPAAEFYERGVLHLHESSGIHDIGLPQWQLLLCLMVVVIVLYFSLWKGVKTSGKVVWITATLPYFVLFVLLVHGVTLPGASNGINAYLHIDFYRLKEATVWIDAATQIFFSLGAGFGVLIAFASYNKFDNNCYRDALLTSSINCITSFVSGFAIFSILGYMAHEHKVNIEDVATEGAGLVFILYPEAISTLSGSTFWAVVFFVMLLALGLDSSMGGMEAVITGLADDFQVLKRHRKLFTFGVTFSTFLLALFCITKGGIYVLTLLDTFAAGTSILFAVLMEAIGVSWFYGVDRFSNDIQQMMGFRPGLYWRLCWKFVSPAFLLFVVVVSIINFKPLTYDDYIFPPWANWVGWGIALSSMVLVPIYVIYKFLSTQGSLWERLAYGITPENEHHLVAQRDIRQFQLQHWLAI
# Sequence of Neuropeptide Y receptor type 2 (Homo sapiens) (P49146 whole entry): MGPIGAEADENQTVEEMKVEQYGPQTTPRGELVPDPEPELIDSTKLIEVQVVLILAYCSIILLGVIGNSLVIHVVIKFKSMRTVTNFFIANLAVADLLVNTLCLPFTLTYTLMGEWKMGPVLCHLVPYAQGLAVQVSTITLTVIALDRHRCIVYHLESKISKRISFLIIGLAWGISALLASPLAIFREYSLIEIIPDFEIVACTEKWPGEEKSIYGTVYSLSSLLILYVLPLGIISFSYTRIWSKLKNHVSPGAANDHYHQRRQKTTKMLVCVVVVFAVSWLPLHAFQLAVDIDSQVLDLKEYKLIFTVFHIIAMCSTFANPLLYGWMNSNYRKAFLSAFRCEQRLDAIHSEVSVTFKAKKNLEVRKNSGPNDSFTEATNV
# Sequence of 5-hydroxytryptamine receptor 1A (Homo sapiens) (P08908 whole entry): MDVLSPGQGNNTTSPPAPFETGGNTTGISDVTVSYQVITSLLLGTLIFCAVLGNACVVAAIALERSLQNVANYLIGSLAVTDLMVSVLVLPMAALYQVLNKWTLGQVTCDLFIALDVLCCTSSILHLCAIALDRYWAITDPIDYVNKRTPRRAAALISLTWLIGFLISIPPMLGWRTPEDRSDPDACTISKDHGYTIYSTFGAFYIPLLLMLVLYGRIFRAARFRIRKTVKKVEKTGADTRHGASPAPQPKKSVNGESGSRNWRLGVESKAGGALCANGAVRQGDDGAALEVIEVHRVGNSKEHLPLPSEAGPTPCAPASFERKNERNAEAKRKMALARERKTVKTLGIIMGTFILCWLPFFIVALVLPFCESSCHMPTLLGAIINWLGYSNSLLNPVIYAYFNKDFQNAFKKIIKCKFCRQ
# Sequence of Sodium-dependent serotonin transporter (Homo sapiens) (P31645 whole entry, looked up): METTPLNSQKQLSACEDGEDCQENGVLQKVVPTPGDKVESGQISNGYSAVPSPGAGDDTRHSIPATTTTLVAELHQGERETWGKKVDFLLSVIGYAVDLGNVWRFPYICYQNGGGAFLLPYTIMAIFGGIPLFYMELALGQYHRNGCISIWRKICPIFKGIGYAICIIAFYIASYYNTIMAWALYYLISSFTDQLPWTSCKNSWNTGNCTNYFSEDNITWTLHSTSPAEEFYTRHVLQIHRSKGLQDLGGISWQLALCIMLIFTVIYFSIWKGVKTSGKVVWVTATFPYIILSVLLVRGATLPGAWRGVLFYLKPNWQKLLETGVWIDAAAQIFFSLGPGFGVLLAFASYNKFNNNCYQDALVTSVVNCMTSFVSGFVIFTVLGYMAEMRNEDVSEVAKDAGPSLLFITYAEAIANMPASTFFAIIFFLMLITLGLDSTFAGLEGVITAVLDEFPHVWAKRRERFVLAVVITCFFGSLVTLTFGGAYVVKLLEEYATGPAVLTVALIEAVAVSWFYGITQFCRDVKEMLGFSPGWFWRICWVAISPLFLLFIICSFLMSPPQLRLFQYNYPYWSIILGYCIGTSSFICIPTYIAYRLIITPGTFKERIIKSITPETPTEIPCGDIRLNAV
# Sequence of Sodium-dependent dopamine transporter (Homo sapiens) (Q01959 whole entry): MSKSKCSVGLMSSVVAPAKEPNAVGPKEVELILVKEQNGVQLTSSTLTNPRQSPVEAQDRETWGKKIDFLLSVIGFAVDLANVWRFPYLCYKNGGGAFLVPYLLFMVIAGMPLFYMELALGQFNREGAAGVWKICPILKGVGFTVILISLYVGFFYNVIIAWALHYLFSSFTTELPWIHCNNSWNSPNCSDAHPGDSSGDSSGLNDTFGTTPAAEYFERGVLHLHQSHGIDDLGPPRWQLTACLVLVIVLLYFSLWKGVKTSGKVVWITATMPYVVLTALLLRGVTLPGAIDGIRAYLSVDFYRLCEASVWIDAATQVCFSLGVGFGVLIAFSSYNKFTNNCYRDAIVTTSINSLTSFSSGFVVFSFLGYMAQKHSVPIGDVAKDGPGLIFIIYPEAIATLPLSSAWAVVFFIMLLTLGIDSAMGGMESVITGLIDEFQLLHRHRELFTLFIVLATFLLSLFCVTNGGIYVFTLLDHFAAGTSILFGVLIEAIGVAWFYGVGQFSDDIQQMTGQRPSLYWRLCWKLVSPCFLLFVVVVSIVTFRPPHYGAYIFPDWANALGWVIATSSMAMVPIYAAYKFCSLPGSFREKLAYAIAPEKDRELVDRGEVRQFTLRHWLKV
smiles,measurement,setting,value
Cc1cc(C(=O)N2CC[C@@H](C)[C@H](c3cc(C(F)F)nc4ncnn34)C2)cc(C)n1,residual activity,[1],102%
same,residual activity,[2],91%
same,residual activity,[3],99%
same,residual activity,[4],118%
same,residual activity,[5],103%
same,residual activity,[6],55.1%
same,residual activity,[7],96.8%
same,residual activity,[8],104%
same,residual activity,[9],99.2%
same,residual activity,[10],108%
same,residual activity,[11],90.2%
same,residual activity,[12],102%
same,residual activity,[13],106%
same,residual activity,[14],103%
same,residual activity,Rattus norvegicus [15],93.6%
same,residual activity,[16],92.8%
same,residual activity,[17],115%
same,residual activity,[18],103%
same,residual activity,[19],96%
same,residual activity,[20],99%
same,residual activity,[21],117%
same,residual activity,[22],97.3%
same,residual activity,[23],105%
same,residual activity,[24],107%
same,residual activity,[25],104%
same,residual activity,[26],104%
same,residual activity,[27],111%
same,residual activity,[28],109%
same,residual activity,Rattus norvegicus [29],105%
same,residual activity,[30],108%
same,residual activity,[31],109%
same,residual activity,Rattus norvegicus [32],102%
